Laboratory results from patent US10906873B2, “Substituted cyclic amides as herbicides” (FMC Corporation, priority 2015, dated 2021).

Columns and labels:
Format in all cases: in vivo
[1] = system: ragweed (common ragweed, Ambrosia elatior); assay: Test A preemergence, ragweed; conditions: 0 to 100 scale
Summary of the method: (§1)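 Seeds sown in loam–sand blend received a directed soil spray preemergence; postemergence plants (2–10 cm, one- to two-leaf stage) were sprayed with test chemicals in non-phytotoxic solvent with surfactant. After about 10 d in greenhouse, injury was scored visually versus untreated controls, 0 (no effect) to 100 (complete control).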

kochia (Kochia scoparia) [2] = assay: Test A postemergence, kochia; conditions: 0 to 100 scale
Summary of the method: as §1

[3] = system: wheat (Triticum aestivum); assay: Test A postemergence, wheat; conditions: 0 to 100 scale
Summary of the method: as §1

[4] = system: blackgrass (Alopecurus myosuroides); assay: Test A postemergence, blackgrass; conditions: 0 to 100 scale
Summary of the method: as §1

rice (Oryza sativa) = assay: Test B flooded paddy test, rice; conditions: Flood, 250 g ai/ha; scale of 0 to 100 where 0 is no effect and 100 is complete control; 13 to 15 d
Summary of the method: (§2)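 Plants at the 2-leaf stage were flooded to 3 cm above soil, and test compounds were applied directly into the paddy water, which was held at that depth throughout. After 13 to 15 d in a greenhouse, injury was rated visually against untreated controls on a 0–100 scale (0 no effect, 100 complete control).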

[5] = system: pigweed (Amaranthus retroflexus); assay: Test A preemergence, pigweed; conditions: 0 to 100 scale
Summary of the method: as §1

[6] = system: barnyardgrass (Echinochloa crus-galli); assay: Test A preemergence, barnyardgrass; conditions: 0 to 100 scale
Summary of the method: as §1

[7] = system: foxtail, giant (giant foxtail, Setaria faberii); assay: Test A preemergence, foxtail, giant; conditions: 0 to 100 scale
Summary of the method: as §1

[8] = system: ryegrass, It. (Italian ryegrass, Lolium multiflorum); assay: Test A postemergence, ryegrass, It.; conditions: 0 to 100 scale
Summary of the method: as §1

[9] = system: foxtail, giant (giant foxtail, Setaria faberii); assay: Test A postemergence, foxtail, giant; conditions: 0 to 100 scale
Summary of the method: as §1

[10] = system: sedge, umbrella (small-flower umbrella sedge, Cyperus difformis); assay: Test B flooded paddy test, sedge, umbrella; conditions: Flood, 250 g ai/ha; scale of 0 to 100 where 0 is no effect and 100 is complete control; 13 to 15 d
Summary of the method: as §2

[11] = system: pigweed (Amaranthus retroflexus); assay: Test A postemergence, pigweed; conditions: 0 to 100 scale
Summary of the method: as §1

[12] = system: barnyardgrass (Echinochloa crus-galli); assay: Test B flooded paddy test, barnyardgrass; conditions: Flood, 250 g ai/ha; scale of 0 to 100 where 0 is no effect and 100 is complete control; 13 to 15 d
Summary of the method: as §2

corn (Zea mays) = assay: Test A postemergence, corn; conditions: 0 to 100 scale
Summary of the method: as §1

[13] = system: ragweed (common ragweed, Ambrosia elatior); assay: Test A postemergence, ragweed; conditions: 0 to 100 scale
Summary of the method: as §1

kochia (Kochia scoparia) [14] = assay: Test A preemergence, kochia; conditions: 0 to 100 scale
Summary of the method: as §1

[15] = system: ryegrass, It. (Italian ryegrass, Lolium multiflorum); assay: Test A preemergence, ryegrass, It.; conditions: 0 to 100 scale
Summary of the method: as §1

[16] = system: ducksalad (Heteranthera limosa); assay: Test B flooded paddy test, ducksalad; conditions: Flood, 250 g ai/ha; scale of 0 to 100 where 0 is no effect and 100 is complete control; 13 to 15 d
Summary of the method: as §2

[17] = system: barnyardgrass (Echinochloa crus-galli); assay: Test A postemergence, barnyardgrass; conditions: 0 to 100 scale
Summary of the method: as §1

[18] = system: galium (catchweed bedstraw, Galium aparine); assay: Test A postemergence, galium; conditions: 0 to 100 scale
Summary of the method: as §1

SMILES | Plant response rating, Ragweed ([1]; 125 g ai/ha) | Plant response rating, Ragweed ([1]; 500 g ai/ha) | Plant response rating, Kochia (kochia (Kochia scoparia) [2]; 125 g ai/ha) | Plant response rating, Kochia (kochia (Kochia scoparia) [2]; 500 g ai/ha) | Plant response rating, Wheat ([3]; 125 g ai/ha) | Plant response rating, Wheat ([3]; 500 g ai/ha) | Plant response rating, Blackgrass ([4]; 125 g ai/ha) | Plant response rating, Blackgrass ([4]; 500 g ai/ha) | Plant response rating, Rice (rice (Oryza sativa)) | Plant response rating, Pigweed ([5]; 125 g ai/ha) | Plant response rating, Pigweed ([5]; 500 g ai/ha) | Plant response rating, Barnyardgrass ([6]; 125 g ai/ha) | Plant response rating, Barnyardgrass ([6]; 500 g ai/ha) | Plant response rating, Foxtail, Giant ([7]; 125 g ai/ha) | Plant response rating, Foxtail, Giant ([7]; 500 g ai/ha) | Plant response rating, Ryegrass, It. ([8]; 125 g ai/ha) | Plant response rating, Ryegrass, It. ([8]; 500 g ai/ha) | Plant response rating, Foxtail, Giant ([9]; 125 g ai/ha) | Plant response rating, Foxtail, Giant ([9]; 500 g ai/ha) | Plant response rating, Sedge, Umbrella [10] | further results
O=C1NCC(/C=C/c2cccc(F)c2)C1C(=O)Nc1cccc(F)c1F (stereo not drawn) [Compound 30] | 0 | 0 | 0 | 0 | 0 | 20 | 0 | 0 | 15 | 0 | 0 | 50 | 90 | 60 | 90 | 0 | 0 | 40 | 80 | 0 | Plant response rating, Pigweed ([11]; 125 g ai/ha): 0; Plant response rating, Pigweed ([11]; 500 g ai/ha): 0; Plant response rating, Barnyardgrass [12]: 70; Plant response rating, Corn (corn (Zea mays); 125 g ai/ha): 0; Plant response rating, Corn (corn (Zea mays); 500 g ai/ha): 20; Plant response rating, Ragweed ([13]; 125 g ai/ha): 0; Plant response rating, Ragweed ([13]; 500 g ai/ha): 0; Plant response rating, Kochia (kochia (Kochia scoparia) [14]; 125 g ai/ha): 70; Plant response rating, Kochia (kochia (Kochia scoparia) [14]; 500 g ai/ha): 80; Plant response rating, Ryegrass, It. ([15]; 125 g ai/ha): 0; Plant response rating, Ryegrass, It. ([15]; 500 g ai/ha): 0; Plant response rating, Ducksalad [16]: 95; Plant response rating, Barnyardgrass ([17]; 125 g ai/ha): 50; Plant response rating, Barnyardgrass ([17]; 500 g ai/ha): 80; Plant response rating, Galium ([18]; 125 g ai/ha): 0; Plant response rating, Galium ([18]; 500 g ai/ha): 20
O=C1NCC(/C=C/c2ccc(F)cc2)C1C(=O)Nc1cccc(F)c1F (stereo not drawn) [Compound 31] | 0 | 0 | 0 | 30 | 0 | 0 | 0 | 0 | 15 | 0 | 0 | 0 | 70 | 20 | 70 | 0 | 20 | 30 | 60 | 50 | Plant response rating, Pigweed ([11]; 125 g ai/ha): 0; Plant response rating, Pigweed ([11]; 500 g ai/ha): 0; Plant response rating, Barnyardgrass [12]: 40; Plant response rating, Corn (corn (Zea mays); 125 g ai/ha): 0; Plant response rating, Corn (corn (Zea mays); 500 g ai/ha): 20; Plant response rating, Ragweed ([13]; 125 g ai/ha): 0; Plant response rating, Ragweed ([13]; 500 g ai/ha): 20; Plant response rating, Kochia (kochia (Kochia scoparia) [14]; 125 g ai/ha): 0; Plant response rating, Kochia (kochia (Kochia scoparia) [14]; 500 g ai/ha): 20; Plant response rating, Ryegrass, It. ([15]; 125 g ai/ha): 0; Plant response rating, Ryegrass, It. ([15]; 500 g ai/ha): 0; Plant response rating, Ducksalad [16]: 80; Plant response rating, Barnyardgrass ([17]; 125 g ai/ha): 30; Plant response rating, Barnyardgrass ([17]; 500 g ai/ha): 70; Plant response rating, Galium ([18]; 125 g ai/ha): 0; Plant response rating, Galium ([18]; 500 g ai/ha): 30
O=C1NCC(/C=C/c2ccccc2)C1C(=O)Nc1ccccc1F (stereo not drawn) [Compound 32] | 0 | 0 | 0 | 0 | 0 | 0 | 0 | 0 | 0 | 0 | 0 | 20 | 60 | 0 | 80 | 0 | 0 | 20 | 80 | 0 | Plant response rating, Pigweed ([11]; 125 g ai/ha): 0; Plant response rating, Pigweed ([11]; 500 g ai/ha): 0; Plant response rating, Barnyardgrass [12]: 0; Plant response rating, Corn (corn (Zea mays); 125 g ai/ha): 20; Plant response rating, Corn (corn (Zea mays); 500 g ai/ha): 20; Plant response rating, Ragweed ([13]; 125 g ai/ha): 10; Plant response rating, Ragweed ([13]; 500 g ai/ha): 10; Plant response rating, Kochia (kochia (Kochia scoparia) [14]; 125 g ai/ha): 0; Plant response rating, Kochia (kochia (Kochia scoparia) [14]; 500 g ai/ha): 0; Plant response rating, Ryegrass, It. ([15]; 125 g ai/ha): 0; Plant response rating, Ryegrass, It. ([15]; 500 g ai/ha): 0; Plant response rating, Ducksalad [16]: 70; Plant response rating, Barnyardgrass ([17]; 125 g ai/ha): 40; Plant response rating, Barnyardgrass ([17]; 500 g ai/ha): 90; Plant response rating, Galium ([18]; 125 g ai/ha): 0; Plant response rating, Galium ([18]; 500 g ai/ha): 0
O=C1NCC(/C=C/c2ccccc2)C1C(=O)Nc1cccc(F)c1F (stereo not drawn) [Compound 33, N-(2,3-difluorophenyl)-2-oxo-4-[(1E)-2-phenylethenyl]-3-pyrrolidinecarboxamide] | 0 | 0 | 0 | 0 | 0 | 0 | 0 | 0 | 0 | 0 | 0 | 50 | 90 | 50 | 90 | 0 | 0 | 70 | 70 | 0 | Plant response rating, Pigweed ([11]; 125 g ai/ha): 0; Plant response rating, Pigweed ([11]; 500 g ai/ha): 0; Plant response rating, Barnyardgrass [12]: 40; Plant response rating, Corn (corn (Zea mays); 125 g ai/ha): 0; Plant response rating, Corn (corn (Zea mays); 500 g ai/ha): 0; Plant response rating, Ragweed ([13]; 125 g ai/ha): 10; Plant response rating, Ragweed ([13]; 500 g ai/ha): 10; Plant response rating, Kochia (kochia (Kochia scoparia) [14]; 125 g ai/ha): 0; Plant response rating, Kochia (kochia (Kochia scoparia) [14]; 500 g ai/ha): 20; Plant response rating, Ryegrass, It. ([15]; 125 g ai/ha): 0; Plant response rating, Ryegrass, It. ([15]; 500 g ai/ha): 0; Plant response rating, Ducksalad [16]: 95; Plant response rating, Barnyardgrass ([17]; 125 g ai/ha): 50; Plant response rating, Barnyardgrass ([17]; 500 g ai/ha): 90; Plant response rating, Galium ([18]; 125 g ai/ha): 0; Plant response rating, Galium ([18]; 500 g ai/ha): 0
